Measurements published in patent publication US7419944B2, “Aqueous disinfecting systems” (Novartis AG, priority 2000, dated 2008).

Key:
[1] = test system: Candida albicans; assay: Semi-quantitative screen of common buffers plus approx. 1.2 ppm PHMB for antimicrobial activity; format: cell-based; conditions: for log reduction: buffer of equal molarity plus approx. 1.2 ppm PHMB, Candida albicans approx. 4x10^5 cfu/ml, estimated visually, in duplicate; for log reduction / estimated relative antimicrobial activity: 4.0 hour exposure; for estimated relative antimicrobial activity: buffer plus approx. 1.2 ppm PHMB, Candida albicans
Protocol: In this example common buffers plus approximately 1.2 ppm PHMB are evaluated for antimicrobial activity against Candida albicans. The pH and molarity of each solution was adjusted to approximately the same values. In that log reductions are estimated by visual observation of solution color and/or pellet formation in the bottom of the test tube, the test is semi-quantitative. All tests were performed in duplicate. All of the biological buffers shown in are described in Biochemicals and Reagents, Sigma-Aldrich CO., 2000-2001 edition Sigma-Aldrich, or online at URL sigma-aldrich.com.
Tubes of sterile solutions of buffer of equal molarity plus approxiamately 1.2 ppm PHMB are challenged with a suspension of Candida albicans at approx. 4×10^5 cfu/ml. Following 4.0 hour exposure, aliquots of each test solution are serially diluted to 10^−5 in DEB. Following approx. 40 hours incubation at ˜32° C., the tubes are observed for discoloration of the DEB and for a pellet in the 10^−5 tube. The entire study is then performed in duplicate.

[2] = cited from earlier work

Row | Molecule | log reduction [1] | further results
1 | O=S(=O)(O)CC(O)CN1CCOCC1 (stereo not shown) [MOPSO] | NONE | 
2 | NC(=O)CN(CC(=O)O)CC(=O)O [ADA] | NONE | 
3 | O=S(=O)(O)CC(O)CNC(CO)(CO)CO (stereo not shown) [TAPSO] | 1 log | estimated relative antimicrobial activity [1]: better activity than phosphate
4 | O=S(=O)(O)CCN1CCN(CCS(=O)(=O)O)CC1 [PIPES] | NONE | 
5 | Borate | 2-3 log | estimated relative antimicrobial activity [1]: superior activity
6 | O=S(=O)(O)CCN(CCO)CCO [BES] | NONE | 
7 | OCC(CO)(CO)NCCCNC(CO)(CO)CO [BIS-TRIS propane, 1,3-bis(tris[hydroxymethyl]methylamino)propane] | 2-3 log | estimated relative antimicrobial activity [1]: superior activity; antimicrobial activity compared with solutions employing any of the other buffering agents ([1]; screening study of 15 biological buffers with polyhexamethylene biguanide or alexidine): significantly higher; pH range useful as a buffering agent ([2]; aqueous solutions): 6.3-9.3; pKa1 ([2]; dissociation constant): 6.8; pKa2 ([2]; dissociation constant): 9.5
8 | OCCN(CCO)C(CO)(CO)CO [BIS-TRIS] | 1 log | estimated relative antimicrobial activity [1]: better activity than phosphate
9 | O=S(=O)(O)CCCN1CCOCC1 [MOPS] | NONE | 
10 | O=S(=O)(O)CCN1CCN(CCO)CC1 [HEPES] | <1 log | 
11 | O=S(=O)(O)CCNC(CO)(CO)CO [TES] | <1 log | 
12 | O=S(=O)(O)CC(O)CN(CCO)CCO (stereo not shown) [DIPSO] | <1 log | 
13 | O=S(=O)(O)CCCCN1CCOCC1 [MOBS] | <1 log | 
14 | NC(=O)CNCCS(=O)(=O)O [ACES] | <1 log | 
